From the supplement of paper PMC10307832

Key:
Test in all cases: relative viability (nuclei count vs DMSO), 5 days (fraction); higher = more cells survive
Tanzisertib + Alpelisib = compound: O[C@H]1CC[C@H](Nc2ncc3nc(Nc4c(F)cc(F)cc4F)n([C@H]4CCOC4)c3n2)CC1 [Tanzisertib] + Cc1nc(NC(=O)N2CCC[C@H]2C(N)=O)sc1-c1ccnc(C(C)(C)C(F)(F)F)c1 [Alpelisib] (partner 2 µM)
Method in brief: (§1)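 Relative viability is defined as nuclei in treated wells over nuclei in vehicle wells. Duplicate plates were run and medians reported. Lung cancer cell lines in 1536-well plates were dosed by pin tool one day after seeding, with one drug or with a fixed anchor-drug dose plus five library-drug doses (not always all listed) in √10 steps, and nuclei were counted after 5 days.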

Tanzisertib + Crizotinib = compound: O[C@H]1CC[C@H](Nc2ncc3nc(Nc4c(F)cc(F)cc4F)n([C@H]4CCOC4)c3n2)CC1 [Tanzisertib] + C[C@@H](Oc1cc(-c2cnn(C3CCNCC3)c2)cnc1N)c1c(Cl)ccc(F)c1Cl [Crizotinib] (partner 1 µM)
Method in brief: as §1

Tanzisertib + OSI-027 = compound: O[C@H]1CC[C@H](Nc2ncc3nc(Nc4c(F)cc(F)cc4F)n([C@H]4CCOC4)c3n2)CC1 [Tanzisertib] + COc1cccc2cc(-c3nc([C@H]4CC[C@H](C(=O)O)CC4)n4ncnc(N)c34)[nH]c12 [OSI-027] (partner 0.5 µM)
Method in brief: as §1

Tanzisertib + Foretinib = compound: O[C@H]1CC[C@H](Nc2ncc3nc(Nc4c(F)cc(F)cc4F)n([C@H]4CCOC4)c3n2)CC1 [Tanzisertib] + COc1cc2c(Oc3ccc(NC(=O)C4(C(=O)Nc5ccc(F)cc5)CC4)cc3F)ccnc2cc1OCCCN1CCOCC1 [Foretinib] (partner 0.25 µM)
Method in brief: as §1

Cell Line | relative viability (Tanzisertib + Alpelisib; first compound 0.08 µM) | relative viability (Tanzisertib + Alpelisib; first compound 0.253 µM) | relative viability (Tanzisertib + Alpelisib; first compound 0.8 µM) | relative viability (Tanzisertib + Alpelisib; first compound 2.53 µM) | relative viability (Tanzisertib + Alpelisib; first compound 8 µM) | relative viability (Tanzisertib + Crizotinib; first compound 0.08 µM) | relative viability (Tanzisertib + Crizotinib; first compound 0.253 µM) | relative viability (Tanzisertib + Crizotinib; first compound 0.8 µM) | relative viability (Tanzisertib + Crizotinib; first compound 2.53 µM) | relative viability (Tanzisertib + Crizotinib; first compound 8 µM) | relative viability (Tanzisertib + OSI-027; first compound 0.08 µM) | relative viability (Tanzisertib + OSI-027; first compound 0.253 µM) | relative viability (Tanzisertib + OSI-027; first compound 0.8 µM) | relative viability (Tanzisertib + OSI-027; first compound 2.53 µM) | relative viability (Tanzisertib + OSI-027; first compound 8 µM) | relative viability (Tanzisertib + Foretinib; first compound 0.08 µM) | relative viability (Tanzisertib + Foretinib; first compound 0.253 µM) | relative viability (Tanzisertib + Foretinib; first compound 0.8 µM) | relative viability (Tanzisertib + Foretinib; first compound 2.53 µM) | relative viability (Tanzisertib + Foretinib; first compound 8 µM)
201T | 1.03 | 1.04 | 1.01 | 0.993 | 1.01 | 1.04 | 1.04 | 1.02 | 1.05 | 0.996 | 0.632 | 0.854 | 0.673 | 0.713 | 0.501 | 1.2 | 1.08 | 1.12 | 1.11 | 0.978
A549 | 0.759 | 0.648 | 0.709 | 0.706 | 0.712 | 0.852 | 0.633 | 0.778 | 0.913 | 0.714 |  |  |  |  |  | 0.98 | 0.951 | 0.97 | 0.87 | 0.839
A-427 | 1.11 | 1.11 | 1.06 | 1.06 | 0.96 | 0.995 | 0.85 | 0.931 | 0.902 | 0.846 | 0.547 | 0.525 | 0.538 | 0.414 | 0.283 | 1.18 | 1.05 | 1.02 | 0.939 | 1.04
ABC-1 | 1.1 | 1.06 | 1.03 | 1.3 | 1.09 | 1.4 | 1.07 | 1.29 | 1.26 | 1.26 | 0.471 | 0.469 | 0.469 | 0.511 | 0.461 | 0.91 | 1.14 | 0.909 | 0.876 | 0.706
BEN | 0.978 | 1.04 | 1.08 | 0.955 | 1.01 | 0.846 | 0.775 | 0.914 | 0.845 | 0.878 | 0.299 | 0.281 | 0.293 | 0.314 | 0.288 | 0.619 | 0.75 | 0.679 | 0.766 | 0.828
CAL-12T | 1.32 | 1.14 | 1.09 | 1.4 | 1.17 | 0.677 | 0.715 | 0.684 | 0.547 | 0.686 | 0.612 | 0.633 | 0.62 | 0.748 | 0.635 | 1.11 | 1.13 | 1.05 | 1.25 | 1.07
COR-L23 | 0.784 | 0.759 | 0.743 | 0.807 | 0.793 | 0.861 | 0.669 | 0.638 | 0.701 | 0.709 | 0.892 | 0.757 | 0.704 | 0.842 | 0.732 | 1.01 | 0.966 | 1 | 1.13 | 1
COR-L 105 | 1.19 | 0.832 | 1.07 | 1.09 | 0.924 | 0.81 | 0.986 | 0.822 | 0.855 | 0.622 | 0.663 | 0.686 | 0.682 | 0.631 | 0.444 | 0.99 | 1.03 | 1.32 | 1.27 | 0.719
Calu-6 | 1.12 | 0.96 | 0.934 | 0.994 | 0.988 | 0.79 | 0.785 | 0.782 | 0.756 | 0.712 |  |  |  |  |  | 0.955 | 0.951 | 0.799 | 0.841 | 0.789
ChaGo-K-1 |  |  |  |  |  | 1.21 | 1.13 | 1.07 | 1.09 | 1.02 | 0.673 | 0.615 | 0.583 | 0.51 | 0.472 | 0.969 | 0.982 | 0.861 | 0.94 | 0.891
EBC-1 | 0.999 | 0.789 | 0.829 | 0.792 | 0.697 | 0.206 | 0.168 | 0.195 | 0.178 | 0.185 |  |  |  |  |  | 0.102 | 0.093 | 0.104 | 0.117 | 0.109
EKVX | 0.72 | 0.846 | 0.952 | 0.832 | 0.685 | 0.895 | 0.867 | 0.967 | 0.898 | 0.853 | 0.872 | 0.749 | 0.613 | 0.612 | 0.598 | 1.08 | 0.681 | 0.759 | 0.872 | 0.497
EMC-BAC-2 | 0.78 | 0.754 | 0.725 | 0.688 | 0.688 | 0.799 | 0.74 | 0.705 | 0.763 | 0.747 | 0.404 | 0.383 | 0.383 | 0.37 | 0.363 | 1.04 | 0.937 | 0.988 | 0.969 | 0.966
EPLC-272H | 0.998 | 0.942 | 0.951 | 1.01 | 0.971 | 0.958 | 0.862 | 0.864 | 0.874 | 0.872 | 0.285 | 0.264 | 0.25 | 0.314 | 0.251 | 0.737 | 0.692 | 0.714 | 0.65 | 0.666
